Columns and labels:
[1] = test system: hippocampal neurogenesis (Dentate Gyrus); experiment: in vivo neurogenesis assay (BrdU+ cells in dentate gyrus); set-up: species or system mice; conditions: living mice; vehicle (DMSO) 7.3
Text: The screen was simple in concept. With help from chemists in the Department of Biochemistry at UTSWMC, we selected 1,000 druglike chemicals from the 250,000 compounds in our high throughput screening center. The compounds were selected to preserve representative chemical diversity of the entire library. They were further selected to enhance the representation of chiral molecules, and to avoid untoward chemical properties such as reactive moieties. The 1,000 molecules were randomly pooled into groups of ten, and each pool was administered directly into the left ventricle of two adult mice. Intracranial delivery was facilitated by stereotactic positioning of a canula fed directly by an Alzet mini-pump containing the mixture of ten chemicals. The drug mixture was administered over a week-long period at concentrations anticipated to deliver mid-nanomolar levels of the ten test compounds. Daily injections of the thymidine analog, bromodeoxyuridine (BrdU), were coadministered in order to monitor the formation of new hippocampal nerve cells. Following compound administration, animals were sacrificed such that brain tissue could be recovered, sectioned and stained with antibodies to BrdU. […]

[2] = target: T1, p70 (NAMPT) (Homo sapiens, UniProt P43490); experiment: binding competition for photo-crosslinking of P7C3-S326 to p70 in H2122 cells; conditions: 0.3 μM P7C3-S326 plus 5 μM competitor, p70 band intensity, P7C3-S326 alone compared with plus competitor, vehicle 1.0
T1 construct: endogenous in cells; host or cells: H2122 lung cancer cells
Method: Cultured cells were co-exposed to P7C3-S326 (0.3 uM) and the individual P7C3 variants (5 uM), exposed to UV light, lysed, clicked to a fluorescent dye and run on SDS gels (FIG. 11).
P7C3-S326 was diluted to 0.3 μM in culture medium to treat H2122 cells. After incubation at 37° C. for 2 hours, H2122 cells were irradiated for 15 minutes under 306 nm ultraviolet light in a Stratalinker 2400 (Stratagene). Cells were then harvested by dissolving in 1% SDS lysis buffer 50 mM HEPES, pH 8.0, 2 mM MgCl2, 10 mM KCl, 1% SDS, 50 units/ml of Benzonase (Sigma), supplemented with Sigmafast protease inhibitor (Sigma).
The reaction was incubated at room temperature with constant agitation at 1,000 rpm on a thermomixer (Eppendorf) for 1 hour. Samples were then mixed with SDS sample loading buffer and loaded on an 8% SDS-PAGE gel, separated, and imaged using a Typhoon imager (filter settings: excitation 533 nm, emission 555 nm, and high sensitivity).
H2122 cells were incubated with the P7C3-S326 (0.3 μM) in the absence or presence of P7C3 analogs for 2 hours following by UV crosslinking. […] The samples were run on SDS-PAGE gels scanned using a Typhoon Imager. The p70 band intensity was analyzed and quantified by Image J, and the relative intensity in each assay was normalized to that of the DMSO control.

T1 sequence (P43490 whole entry): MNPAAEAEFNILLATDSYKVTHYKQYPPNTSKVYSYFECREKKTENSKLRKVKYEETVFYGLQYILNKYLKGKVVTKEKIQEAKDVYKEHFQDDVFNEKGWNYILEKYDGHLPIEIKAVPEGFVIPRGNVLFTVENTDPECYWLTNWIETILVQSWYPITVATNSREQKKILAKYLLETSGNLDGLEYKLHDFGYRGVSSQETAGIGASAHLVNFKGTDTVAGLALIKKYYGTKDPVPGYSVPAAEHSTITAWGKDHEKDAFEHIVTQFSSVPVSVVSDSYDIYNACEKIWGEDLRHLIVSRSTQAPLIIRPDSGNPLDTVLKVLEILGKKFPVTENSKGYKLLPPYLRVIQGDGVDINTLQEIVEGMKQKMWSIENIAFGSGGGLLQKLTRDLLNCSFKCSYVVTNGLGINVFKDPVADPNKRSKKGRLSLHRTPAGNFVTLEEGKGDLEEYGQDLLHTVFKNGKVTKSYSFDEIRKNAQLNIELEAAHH

Structure (SMILES) | Neurogenesis # BrdU+ Cells (X10E06)/mm3 Dentate Gyrus [1] | Binding competition [2]
CC(C(=O)O)n1c2ccc(Br)cc2c2cc(Br)ccc21 (stereo not shown) [S211] | 11.5 (X10E06)/mm3 | 1.2
CNCCC=C1c2ccccc2CCc2ccccc21.Cl [S89, Nortriptyline, reference compound] | 8.7 (X10E06)/mm3 | 1.3
OC(COC1CCCCC1)Cn1c2ccc(Br)cc2c2cc(Br)ccc21 (stereo not shown) [S178] | 13.8 (X10E06)/mm3 | 1.7
N#Cc1ccc2c(c1)c1cc(Br)ccc1n2CC(=O)O [S224] | 10.1 (X10E06)/mm3 | 1.3
CNCC(O)CN1c2ccccc2CCc2ccccc21 (stereo not shown) [S143] | 7.3 (X10E06)/mm3 | 1.3
CCOC(=O)c1cc2c3cc(Br)ccc3n(CC(O)COc3ccccc3)c2cn1 (stereo not shown) [S174] | 9.3 (X10E06)/mm3 | 1.8
COc1cccc(SCC(F)Cn2c3ccc(Br)cc3c3cc(Br)ccc32)c1 (stereo not shown) [S79] | 13.7 (X10E06)/mm3 | 1.0
CCOC(=O)C1=C[C@]2(CC)CCCN3CCc4c(n1c1ccccc41)[C@@H]32 [S199] | 13.3 (X10E06)/mm3 | 1.1
NCC(O)CN1c2ccccc2CCc2ccccc21 (stereo not shown) [S140] | 11.7 (X10E06)/mm3 | 1.2
OC(CNc1ccccn1)Cn1c2ccc(Br)cc2c2cc(Br)ccc21 (stereo not shown) [S38] | 13.7 (X10E06)/mm3 | 4.2
OC(COc1ccccn1)Cn1c2ccc(Br)cc2c2cc(Br)ccc21 (stereo not shown) [S147] | 13.3 (X10E06)/mm3 | 3.4
Cc1ccc2[nH]c3ccc(C)cc3c2c1 [S237] | 11.8 (X10E06)/mm3 | 1.5
CN[C@H]1CC[C@@H](c2ccc(Cl)c(Cl)c2)c2ccccc21 [S123, Zoloft, reference compound] | 9.4 (X10E06)/mm3 | 1.5
OC(Cn1c2ccc(Br)cc2c2cc(Br)ccc21)Cn1c2ccc(Br)cc2c2cc(Br)ccc21 [S34] | 7.6 (X10E06)/mm3 | 1.0
CNCC(F)CN1c2ccccc2CCc2ccccc21 (stereo not shown) [S152] | 13.4 (X10E06)/mm3 | 1.6
N#CN1CCc2c(c3cc(Br)ccc3n2CC(O)COc2ccccc2)C1 (stereo not shown) [S107] | 7.3 (X10E06)/mm3 | 3.5
COc1c(Br)cc(OC)c2c1c1cc(Br)ccc1n2CC(O)CNc1ccccc1 (stereo not shown) [S160] | 13.1 (X10E06)/mm3 | 4.3
COc1cccc(N(CC(F)Cn2c3ccc(Br)cc3c3cc(Br)ccc32)S(=O)(=O)C(F)(F)F)c1 (stereo not shown) [S241] | 15.5 (X10E06)/mm3 | 1.3
O=S(=O)(CC(O)Cn1c2ccc(Cl)cc2c2cc(Cl)ccc21)c1ccccc1 (stereo not shown) [S52] | 10.8 (X10E06)/mm3 | 4.3
O=S(=O)(C[C@@H](O)Cn1c2ccc(Br)cc2c2cc(Br)ccc21)c1ccccc1 [S50] | 16.2 (X10E06)/mm3 | 3.8
Cc1c(C)n(CC(O)CNc2ccccc2)c2ccc(Br)cc12 (stereo not shown) [S18] | 10.9 (X10E06)/mm3 | 1.7
OC(CNc1ccccc1)Cn1c2ccc(C3CC3)cc2c2cc(C3CC3)ccc21 (stereo not shown) [S62] | 11.8 (X10E06)/mm3 | 1.2
Brc1ccc2[nH]c3ccccc3c2c1 [S236] | 12.3 (X10E06)/mm3 | 1.7
COc1cccc(NCC(O)CN2c3ccccc3CCc3ccccc32)c1 (stereo not shown) [S158] | 12.5 (X10E06)/mm3 | 1.3
CCOC(=O)C1=NCc2c(c3ccccc3n2S(=O)(=O)c2ccc(C)cc2)N1 [S247] | 15.6 (X10E06)/mm3 | 1.6

Structure (SMILES) | Neurogenesis # BrdU+ Cells (X10E06)/mm3 Dentate Gyrus [1] | Binding competition [2]
FC(COc1ccccc1)Cn1c2ccc(Br)cc2c2cc(Br)ccc21 (stereo not shown) [S42] | 11.7 (X10E06)/mm3 | 1.7
COc1cccc(NC(=O)C(O)Cn2c3ccc(Br)cc3c3cc(Br)ccc32)c1 (stereo not shown) [S31] | 10.4 (X10E06)/mm3 | 6.2
OC(COc1ccccc1)CN1c2ccccc2CCc2ccccc21 (stereo not shown) [S135] | 7.1 (X10E06)/mm3 | 3.4
OC(COc1ccccc1)Cn1c2c(c3cc(Br)ccc31)CN(C1CC1)CC2 (stereo not shown) [S106] | 10.9 (X10E06)/mm3 | 1.4
Nc1ccc(SCC(O)Cn2c3ccc(Br)cc3c3cc(Br)ccc32)cc1 (stereo not shown) [S96] | 8.7 (X10E06)/mm3 | 3.9
[O-][n+]1cccc2c1c1cc(Br)ccc1n2CC(O)COc1ccccc1 (stereo not shown) [S198] | 11.0 (X10E06)/mm3 | 5.1
OC(CNc1ccccc1)CN(c1ccc(Br)cc1)c1ccc(Br)cc1 (stereo not shown) [S72] | 11.7 (X10E06)/mm3 | 1.4
COc1c(Br)ccc2c1c1cc(Br)ccc1n2CC(O)CNc1ccccc1 (stereo not shown) [S168] | 14.6 (X10E06)/mm3 | 3.5
CNCCCC1c2ccccc2C=Cc2ccccc21.Cl [S90, Protriptyline, reference compound] | 11.1 (X10E06)/mm3 | 1.4
O=C(COc1cccc(SCC(O)Cn2c3ccc(Br)cc3c3cc(Br)ccc32)c1)NCc1ccccc1 (stereo not shown) [S98] | 6.9 (X10E06)/mm3 | 1.1
NC(=O)c1ccc2c(c1)c1cc(Br)ccc1n2CC(O)COc1ccccc1 (stereo not shown) [S146] | 14.5 (X10E06)/mm3 | 2.8
OC(COc1ccccc1)Cn1c2ccccc2c2cc(Br)ccc21 (stereo not shown) [S150] | 8.4 (X10E06)/mm3 | 4.1
NNCCc1ccccc1 [S116, Nardi, reference compound] | 11.0 (X10E06)/mm3 | 1.2
OCCn1c2ccc(Br)cc2c2cc(Br)ccc21 [S171] | 13.1 (X10E06)/mm3 | 3.2
CC(C)(O)Cn1c2ccc(Br)cc2c2cc(Br)ccc21 [S169] | 9.2 (X10E06)/mm3 | 3.0
OC(COc1ccccc1)Cn1c2ccc(Br)cc2c2ncccc21 (stereo not shown) [S194] | 8.1 (X10E06)/mm3 | 5.1
O=C(O)CCc1c[nH]c2ccccc12 [S242] | 10.8 (X10E06)/mm3 | 1.2
CC(C)NCC(O)CN1c2ccccc2CCc2ccccc21 (stereo not shown) [S144] | 9.1 (X10E06)/mm3 | 1.4
OC(CNC1CCCCC1)Cn1c2ccc(Br)cc2c2cc(Br)ccc21 (stereo not shown) [S109] | 9.4 (X10E06)/mm3 | 1.2
Oc1ccc(SCC(O)Cn2c3ccc(Br)cc3c3cc(Br)ccc32)cc1 (stereo not shown) [S92] | 8.4 (X10E06)/mm3 | 2.5
[N-]=[N+]=Nc1ccc(NCC(O)Cn2c3ccc(Br)cc3c3cc(Br)ccc32)cc1 (stereo not shown) [S48] | 14.5 (X10E06)/mm3 | 3.4
CN(C)CCC=C1c2ccccc2CCc2ccccc21.Cl [S86, Amitriptyline, reference compound] | 9.7 (X10E06)/mm3 | 1.3
[O-][n+]1ccc2c(c1)c1cc(Br)ccc1n2CC(O)COc1ccccc1 (stereo not shown) [S195] | 9.0 (X10E06)/mm3 | 1.1
N#Cc1ccc(N(CC(O)COc2ccccc2)c2ccc(Br)cc2)nc1 (stereo not shown) [S136] | 6.5 (X10E06)/mm3 | 5.7
COc1cccc(NCC(O)Cn2c3ccc(C#N)cc3c3cc(C#N)ccc32)c1 (stereo not shown) [S65] | 12.9 (X10E06)/mm3 | 3.3

Reference: US9243281B2, “Neuroprotective chemicals and methods for identifying and using same” (Board of Regents of The University of Texas System, priority 2013, dated 2016)
